Active and inactive are the calls of the source. No cut-off for these calls is given here. Positions of bridges follow the written chain, without caps; N, C: chain ends. Non-standard residues stand in square brackets, D forms with d. Residues, ends and D or L forms follow the SMILES beside them. ξ: configuration not given here. *: point of attachment. Propanoyl(3-(MeO(CH2CH2O)2)) = COCCOCCOCCC(=O)*; X1 = COCCOCCOCCOCCOCCOCCOCCC(=O)*; NMeQ = CN[C@@H](CCC(N)=O)C(=O)O; NMeN = CN[C@@H](CC(N)=O)C(=O)O; X2 = COCCOCCOCCOCCOCCC(=O)*; NMeC = CN[C@@H](CS)C(=O)O; NMeS = CN[C@@H](CO)C(=O)O; Heptanoyl = CCCCCCC(=O)*; Orn = NCCC[C@H](N)C(=O)O; ξNMeM = CNC(CCSC)C(=O)O; Pentanoyl = CCCCC(=O)*; ξM = CSCCC(N)C(=O)O
Assays:
[1] = tested on: RAW264.7; assay: Antiinflammatory activity in LPS-induced mouse RAW264.7 cells assessed as […] in IL-1beta expression at 1 microg/ml preincubated with compound for 24 hrs followed by LPS addition for 6 hrs by ELISA method; assay type: functional, cell-based; details: dose 1.0 µg/ml, time 30.0 hrs
[2] = Cytotoxicity against mouse RAW264.7 cells assessed as cell viability at 1 microg/ml measured after 24 hrs by CCK-8 assay; assay type: toxicity, cell-based; details: at 1 µg/mL, read-out: Activity
[3] = tested on: RAW264.7; assay: Antiinflammatory activity in LPS-induced mouse RAW264.7 cells assessed as inhibition of NO expression at 1 microg/ml preincubated with compound for 24 hrs followed by LPS addition for 6 hrs by DAF-FM diacetate probe based analysis; assay type: functional, cell-based; details: dose 1.0 µg/ml, time 30.0 hrs
[4] = tested on: RAW264.7; assay: Antiinflammatory activity in LPS-induced mouse RAW264.7 cells assessed as inhibition of TNF-alpha expression at 1 microg/ml preincubated with compound for 24 hrs followed by LPS addition for 6 hrs by ELISA method; assay type: functional, cell-based; details: dose 1.0 µg/ml, time 30.0 hrs
[5] = tested on: RAW264.7; assay: Antiinflammatory activity in LPS-induced mouse RAW264.7 cells assessed as inhibition of NO generation at 1 microg/ml preincubated with compound for 24 hrs followed by LPS addition for 6 hrs by DAF-FM diacetate probe based analysis; assay type: functional, cell-based; details: dose 1.0 µg/ml
[6] = tested on: RAW264.7; assay: Antiinflammatory activity in LPS-induced mouse RAW264.7 cells assessed as inhibition of IL-1beta expression at 1 microg/ml preincubated with compound for 24 hrs followed by LPS addition for 6 hrs by ELISA method; assay type: functional, cell-based; details: dose 1.0 µg/ml, time 30.0 hrs
[7] = tested on: RAW264.7; assay: Antiinflammatory activity in LPS-induced mouse RAW264.7 cells assessed as reduction in IL-1beta activity at 1 microg/ml preincubated with compound for 24 hrs followed by LPS addition for 6 hrs by ELISA method; assay type: functional, cell-based; details: dose 1.0 µg/ml, time 30.0 hrs
[8] = tested on: RAW264.7; assay: Antiinflammatory activity in LPS-induced mouse RAW264.7 cells assessed as effect on TNF-alpha level at 1 microg/ml preincubated with compound for 24 hrs followed by LPS addition for 6 hrs by ELISA method; assay type: functional, cell-based; details: dose 1.0 µg/ml, time 30.0 hrs
[9] = tested on: RAW264.7; assay: Antiinflammatory activity in LPS-induced mouse RAW264.7 cells assessed as effect on IL-1beta level at 1 microg/ml preincubated with compound for 24 hrs followed by LPS addition for 6 hrs by ELISA method; assay type: functional, cell-based; details: dose 1.0 µg/ml, time 30.0 hrs
[10] = tested on: RAW264.7; assay: Antiinflammatory activity in LPS-induced mouse RAW264.7 cells assessed as effect on NO level at 1 microg/ml preincubated with compound for 24 hrs followed by LPS addition for 6 hrs by DAF-FM diacetate probe based analysis; assay type: functional, cell-based; details: dose 1.0 µg/ml, time 30.0 hrs
[11] = tested on: Mus musculus; assay: Anti-inflammatory activity against collagenase-induced osteoarthritis C57BL/6J mouse model assessed as improvement in cartilage thickness at 1 mg/kg, ip measured on day 14 by H and E staining based analysis; assay type: functional, organism-based; details: time 14.0 day
[12] = Stability in human serum measured upto 6 hrs by RP-HPLC analysis; assay type: ADME, cell-free
[13] = tested on: Mus musculus; assay: Anti-inflammatory activity against collagenase-induced osteoarthritis C57BL/6J mouse model assessed as reduction in mankin score in articular cartilage at 1 mg/kg, ip measured on day 14; assay type: functional, organism-based; details: time 14.0 day

Row | SMILES | Activity [1] | viability at 24 h, 1 microg/ml [2] | Activity [4] | Activity [6] | other results
1 | CSCC[C@H](N)C(=O)N[C@@H](CCC(N)=O)C(=O)N[C@@H](CS)C(=O)N[C@@H](CC(N)=O)C(=O)N[C@H](CO)C(N)=O | inactive | ~80% | Active | – | Activity [3]: Active
2 | CSCCC(N)C(=O)N[C@@H](CCC(N)=O)C(=O)N(C)[C@@H](CS)C(=O)N[C@@H](CC(N)=O)C(=O)N[C@@H](CO)C(N)=O (some centres undefined) (H-[ξM]Q[NMeC]NS-NH2) | Active | ~80% | Active | – | Activity [5]: inactive
3 | COCCOCCOCCOCCOCCSC[C@@H](NC(=O)[C@@H](CCC(N)=O)NC(=O)[C@H](N)CCSC)C(=O)N[C@H](CC(N)=O)C(=O)N[C@H](CO)C(N)=O | Active | ~80% | Active | – | –
4 | CSCC[C@H](N)C(=O)N[C@H]1CCCCNC(=O)C[C@@H](C(=O)N[C@@H](CO)C(N)=O)NC(=O)[C@H](CS)NC1=O (H-MKCDS-NH2; lactam 2-4) | – | ~80% | inactive | Active | –
5 | COCCOCCOCCOCCOCCC(=O)N[C@@H](CCSC)C(=O)N[C@@H](CCC(N)=O)C(=O)N[C@@H](CS)C(=O)N[C@@H](CC(N)=O)C(=O)N[C@@H](CO)C(N)=O (X2-MQCNS-NH2) | – | ~80% | – | – | Activity [7]: Active; Activity [8]: Active; Activity [9]: Active; Activity [10]: Active
6 | CNC(CCSC)C(=O)N[C@@H](CCC(N)=O)C(=O)N[C@@H](CS)C(=O)N[C@@H](CC(N)=O)C(=O)N[C@@H](CO)C(N)=O (some centres undefined) (H-[ξNMeM]QCNS-NH2) | Active | ~80% | Active | – | Activity [5]: inactive
7 | CSCC[C@H](N)C(=O)N[C@H]1CCC(=O)NCCCC[C@@H](C(=O)N[C@@H](CO)C(N)=O)NC(=O)[C@H](CS)NC1=O (H-MECKS-NH2; lactam 2-4) | – | ~80% | – | inactive | –
8 | COCCOCCOCCSC[C@@H](NC(=O)[C@@H](CCC(N)=O)NC(=O)[C@H](N)CCSC)C(=O)N[C@H](CC(N)=O)C(=O)N[C@H](CO)C(N)=O | Active | ~80% | Active | – | –
9 | CSCCC(N)C(=O)N(C)[C@@H](CCC(N)=O)C(=O)N[C@@H](CS)C(=O)N[C@@H](CC(N)=O)C(=O)N[C@@H](CO)C(N)=O (some centres undefined) (H-[ξM][NMeQ]CNS-NH2) | Active | 82.9% | Active | – | Activity [5]: Active; Activity [11]: Active
10 | CCCCCCC(=O)N[C@@H](CCSC)C(=O)N[C@@H](CCC(N)=O)C(=O)N[C@@H](CS)C(=O)N[C@@H](CC(N)=O)C(=O)N[C@@H](CO)C(N)=O (Heptanoyl-MQCNS-NH2) | – | ~80% | – | Active | Activity [8]: Active; Activity [9]: Active; Activity [10]: Active
11 | CSCC[C@H](N)C(=O)N[C@H](CCC(N)=O)C(=O)N[C@@H](CS)C(=O)N[C@@H](CC(N)=O)C(=O)N[C@@H](CO)C(N)=O | inactive | ~80% | Active | – | Activity [3]: Active
12 | CSCC[C@H](NC(C)=O)C(=O)N[C@@H](CCC(N)=O)C(=O)N[C@@H](CS)C(=O)N[C@@H](CC(N)=O)C(=O)N[C@@H](CO)C(N)=O (Ac-MQCNS-NH2) | – | ~80% | – | Active | Activity [8]: Active; Activity [9]: Active; Activity [10]: Active
13 | CSCC[C@H](N)C(=O)N[C@@H](CCC(N)=O)C(=O)N[C@@H](CS)C(=O)N[C@@H](CC(N)=O)C(=O)N[C@@H](CO)C(N)=O | – | 82.2% | Active | Active | Activity [5]: Active; Stability [12]: Stable; Activity [11]: Active; Activity [13]: Active
14 | CSCC[C@@H](N)C(=O)N[C@H]1CC(=O)NCCC[C@@H](C(=O)N[C@@H](CO)C(N)=O)NC(=O)[C@H](CS)NC1=O | – | ~80% | – | inactive | –
15 | CSCC[C@@H](N)C(=O)N[C@H]1CC(=O)NCCCC[C@@H](C(=O)N[C@@H](CO)C(N)=O)NC(=O)[C@H](CS)NC1=O | – | ~80% | – | inactive | –
16 | CSCC[C@H](N)C(=O)N[C@@H](CCC(N)=O)C(=O)N[C@H](CS)C(=O)N[C@@H](CC(N)=O)C(=O)N[C@@H](CO)C(N)=O | – | ~80% | Active | Active | Activity [3]: Active
17 | CSCC[C@H](N)C(=O)N[C@H]1CCCNC(=O)CC[C@@H](C(=O)N[C@@H](CO)C(N)=O)NC(=O)[C@H](CS)NC1=O (H-M[Orn]CES-NH2; lactam 2-4) | – | 81.9% | – | Active | Activity [11]: Active
18 | CSCC[C@H](N)C(=O)N[C@H]1CCC(=O)NCCC[C@@H](C(=O)N[C@@H](CO)C(N)=O)NC(=O)[C@H](CS)NC1=O (H-MEC[Orn]S-NH2; lactam 2-4) | – | ~80% | – | inactive | –
19 | CSCC[C@H](N)C(=O)N[C@H]1CCCNC(=O)C[C@@H](C(=O)N[C@@H](CO)C(N)=O)NC(=O)[C@H](CS)NC1=O (H-M[Orn]CDS-NH2; lactam 2-4) | – | ~80% | – | Active | –
20 | CSCCC(N)C(=O)N[C@@H](CCC(N)=O)C(=O)N[C@@H](CS)C(=O)N[C@@H](CC(N)=O)C(=O)N(C)[C@@H](CO)C(N)=O (some centres undefined) (H-[ξM]QCN[NMeS]-NH2) | Active | ~80% | Active | – | Activity [5]: inactive
21 | CSCC[C@H](N)C(=O)N[C@@H](CCC(N)=O)C(=O)N[C@@H](CS)C(=O)N[C@H](CC(N)=O)C(=O)N[C@@H](CO)C(N)=O | inactive | ~80% | Active | – | Activity [3]: Active
22 | COCCOCCOCCOCCOCCOCCOCCC(=O)N[C@@H](CCSC)C(=O)N[C@@H](CCC(N)=O)C(=O)N[C@@H](CS)C(=O)N[C@@H](CC(N)=O)C(=O)N[C@@H](CO)C(N)=O (X1-MQCNS-NH2) | – | ~80% | – | Active | Activity [8]: Active; Activity [9]: Active; Activity [10]: Active
23 | CCCCC(=O)N[C@@H](CCSC)C(=O)N[C@@H](CCC(N)=O)C(=O)N[C@@H](CS)C(=O)N[C@@H](CC(N)=O)C(=O)N[C@@H](CO)C(N)=O (Pentanoyl-MQCNS-NH2) | – | ~80% | – | Active | Activity [8]: Active; Activity [9]: Active; Activity [10]: Active
24 | COCCOCCOCCC(=O)N[C@@H](CCSC)C(=O)N[C@@H](CCC(N)=O)C(=O)N[C@@H](CS)C(=O)N[C@@H](CC(N)=O)C(=O)N[C@@H](CO)C(N)=O ({Propanoyl(3-(MeO(CH2CH2O)2))}-MQCNS-NH2) | – | ~80% | – | – | Activity [7]: Active; Activity [8]: Active; Activity [9]: Active; Activity [10]: Active
25 | CSCC[C@@H](N)C(=O)N[C@@H](CCC(N)=O)C(=O)N[C@@H](CS)C(=O)N[C@@H](CC(N)=O)C(=O)N[C@@H](CO)C(N)=O | – | 86.8% | Active | Active | Activity [11]: Active; Activity [3]: Active
26 | COCCOCCOCCOCCOCCOCCOCCSC[C@@H](NC(=O)[C@@H](CCC(N)=O)NC(=O)[C@H](N)CCSC)C(=O)N[C@H](CC(N)=O)C(=O)N[C@H](CO)C(N)=O | Active | 88.8% | Active | – | Activity [5]: Active; Activity [11]: Active
27 | CSCCC(N)C(=O)N[C@@H](CCC(N)=O)C(=O)N[C@@H](CS)C(=O)N(C)[C@@H](CC(N)=O)C(=O)N[C@@H](CO)C(N)=O (some centres undefined) (H-[ξM]QC[NMeN]S-NH2) | Active | ~80% | Active | – | Activity [5]: inactive
28 | CSCC[C@H](N)C(=O)N[C@H]1CCCCNC(=O)CC[C@@H](C(=O)N[C@@H](CO)C(N)=O)NC(=O)[C@H](CS)NC1=O (H-MKCES-NH2; lactam 2-4) | – | ~80% | – | Active | Activity [5]: inactive
